Structures can show the parent of a compound that is named as a salt.
These compounds were tested against S1P1 (Homo sapiens, UniProt P21453) (assay: 35S-GTPyS binding assay (membranes)). Settings: compound 0.1nM-10µM, 0.1nM 35S-GTPyS, 10µM S1P as 100% maximum efficacy, 90 min at room temperature.
Format: biochemical
Protocol: The effect of the compounds was measured using a 35S-GTPyS binding assay. Briefly, membranes were incubated in a buffer containing 20 mM HEPES pH 7.4, 100 mM NaCl, 10 mM MgCl2, 10µM GDP, 50µg/ml saponin and 0.2% fatty acid-free BSA at various concentrations (0.1nM-10µM) and 0.1nM 35S-GTPyS. 10µM S1P was used as 100% maximum efficacy. The assay was incubated for 90 min at room temperature with gentle mixing, and terminated by filtrating the reaction mixture through GF/C filter plates using the Manifold Filtration System. The filters were immediately washed with sodium phosphate pH 7.4 buffer. After drying the filter plates scintillant liquid were added to each well and 35S-GTPyS binding was measured on a Trilux Scintillation Counter.

S1P1, sequence (P21453 whole entry, species assumed): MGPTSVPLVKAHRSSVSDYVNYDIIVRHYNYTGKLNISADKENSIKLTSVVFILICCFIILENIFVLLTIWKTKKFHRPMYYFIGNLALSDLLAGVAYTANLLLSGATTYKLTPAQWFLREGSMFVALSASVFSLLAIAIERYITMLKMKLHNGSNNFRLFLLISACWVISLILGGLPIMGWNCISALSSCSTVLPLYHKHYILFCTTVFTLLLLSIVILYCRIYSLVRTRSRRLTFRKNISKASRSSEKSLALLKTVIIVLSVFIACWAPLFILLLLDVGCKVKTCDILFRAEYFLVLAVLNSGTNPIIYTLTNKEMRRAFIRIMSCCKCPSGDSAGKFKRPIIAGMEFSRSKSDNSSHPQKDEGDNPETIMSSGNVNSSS

SMILES | EC50
CCCCN(C(=O)c1ccccc1F)c1nnc(-c2cc(C)c(OCCN3CC(C(=O)O)C3)c(C)c2)s1 [Example 1, 1-[2-(4-{5-[Butyl(2-fluorobenzoyl)amino]-1,3,4-thiadiazol-2-yl}-2,6-dimethylphenoxy)ethyl]azetidine-3-carboxylic acid] | 2.5 nM
CCCCN(C(=O)c1ccccc1F)c1nnc(-c2cc(C)c(OCCNCCc3nn[nH]n3)c(C)c2)s1 [Example 12, N-butyl-N-{5-[3,5-dimethyl-4-(2-{[2-(2H-tetrazol-5-yl)ethyl]amino}ethoxy)phenyl]-1,3,4-thiadiazol-2-yl}-2-fluorobenzamide] | 0.4 nM
CCCCN(C(=O)Nc1ccccc1)c1nnc(-c2ccc(CN3CC(C(=O)O)C3)cc2)s1 [Example 40, 1-(4-{5-[(anilinocarbonyl)(butyl)amino]-1,3,4-thiadiazol-2-yl}benzyl)azetidine-3-carboxylic acid] | 70 nM
CCCCN(C(=O)c1ccccc1F)c1nnc(-c2cc(C)c(OCCN(C)CCO)c(C)c2)s1 [Example 57, N-butyl-2-fluoro-N-[5-(4-{2-[(2-hydroxyethyl)(methyl)amino]ethoxy}-3,5-dimethylphenyl)-1,3,4-thiadiazol-2-yl]benzamide] | 8.5 nM

Further compounds by falling EC50, results first:

EC50 | SMILES
40 nM | CCCCN(C(=O)c1ccccc1F)c1nnc(-c2ccc(CNCCO)cc2)s1 [Example 36, N-butyl-2-fluoro-N-[5-(4-{[(2-hydroxyethyl)amino]methyl}phenyl)-1,3,4-thiadiazol-2-yl]benzamide, formate salt]
4.1 nM | Cc1cc(-c2nnc(N(CC3CC3)C(=O)c3ccccc3Cl)s2)cc(C)c1OCCN1CCC(CC(=O)O)CC1 [Example 23, {1-[2-(4-{5-[(2-chlorobenzoyl)(cyclopropylmethyl)amino]-1,3,4-thiadiazol-2-yl}-2,6-dimethylphenoxy)ethyl]piperidin-4-yl}acetic acid hydrochloride]
4.1 nM | CCCCN(C(=O)c1ccccc1F)c1nnc(-c2cc(C)c(OCCNCCn3cncn3)c(C)c2)s1 [Example 31, N-butyl-N-{5-[3,5-dimethyl-4-(2-{[2-(1H-1,2,4-triazol-1-yl)ethyl]amino}ethoxy)-phenyl]-1,3,4-thiadiazol-2-yl}-2-fluorobenzamide]
2.3 nM | CCCCN(C(=O)c1ccccc1F)c1nnc(-c2ccc(CN3CC(c4nnn[nH]4)C3)cc2)s1 [Example 30, N-butyl-2-fluoro-N-[5-(4-{[3-(1H-tetrazol-5-yl)azetidin-1-yl]methyl}phenyl)-1,3,4-thiadiazol-2-yl]benzamide]

Reference: patent EP2305660A1, “New thiadiazole derivatives” (Almirall, S.A., priority 2009, dated 2011)
